Assays:
Format in all cases: functional, cell-based
[1] = molecular target: T1, Solute carrier family 15 member 2 (Rattus norvegicus, UniProt Q63424); test: TP_TRANSPORTER: inhibition of Gly-Sar uptake in PEPT2-expressing HeLa cells
T1 sequence (Q63424 whole entry): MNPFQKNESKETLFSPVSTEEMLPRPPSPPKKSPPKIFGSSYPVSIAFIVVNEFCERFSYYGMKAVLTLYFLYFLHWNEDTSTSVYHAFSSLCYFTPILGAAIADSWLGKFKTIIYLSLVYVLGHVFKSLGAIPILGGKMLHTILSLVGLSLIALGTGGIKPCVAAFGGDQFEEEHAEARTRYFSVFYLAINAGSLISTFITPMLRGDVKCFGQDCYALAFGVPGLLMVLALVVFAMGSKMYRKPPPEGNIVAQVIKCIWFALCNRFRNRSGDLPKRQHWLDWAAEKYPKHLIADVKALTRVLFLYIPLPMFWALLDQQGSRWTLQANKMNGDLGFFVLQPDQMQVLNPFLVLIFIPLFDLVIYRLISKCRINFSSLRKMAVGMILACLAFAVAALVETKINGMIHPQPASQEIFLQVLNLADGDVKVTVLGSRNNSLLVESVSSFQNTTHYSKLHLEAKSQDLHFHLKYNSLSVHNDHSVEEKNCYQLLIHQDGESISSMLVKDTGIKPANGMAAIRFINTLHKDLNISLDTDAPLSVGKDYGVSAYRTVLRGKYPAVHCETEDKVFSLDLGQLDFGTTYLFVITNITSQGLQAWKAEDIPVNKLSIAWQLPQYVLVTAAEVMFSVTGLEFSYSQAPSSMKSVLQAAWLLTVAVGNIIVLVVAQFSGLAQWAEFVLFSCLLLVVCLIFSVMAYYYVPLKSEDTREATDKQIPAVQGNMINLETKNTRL

[2] = molecular target: T2, Solute carrier family 15 member 1 (Homo sapiens, UniProt P46059); test: TP_TRANSPORTER: inhibition of Gly-Sar uptake in PEPT1-expressing HeLa cells
T2 sequence (P46059 whole entry): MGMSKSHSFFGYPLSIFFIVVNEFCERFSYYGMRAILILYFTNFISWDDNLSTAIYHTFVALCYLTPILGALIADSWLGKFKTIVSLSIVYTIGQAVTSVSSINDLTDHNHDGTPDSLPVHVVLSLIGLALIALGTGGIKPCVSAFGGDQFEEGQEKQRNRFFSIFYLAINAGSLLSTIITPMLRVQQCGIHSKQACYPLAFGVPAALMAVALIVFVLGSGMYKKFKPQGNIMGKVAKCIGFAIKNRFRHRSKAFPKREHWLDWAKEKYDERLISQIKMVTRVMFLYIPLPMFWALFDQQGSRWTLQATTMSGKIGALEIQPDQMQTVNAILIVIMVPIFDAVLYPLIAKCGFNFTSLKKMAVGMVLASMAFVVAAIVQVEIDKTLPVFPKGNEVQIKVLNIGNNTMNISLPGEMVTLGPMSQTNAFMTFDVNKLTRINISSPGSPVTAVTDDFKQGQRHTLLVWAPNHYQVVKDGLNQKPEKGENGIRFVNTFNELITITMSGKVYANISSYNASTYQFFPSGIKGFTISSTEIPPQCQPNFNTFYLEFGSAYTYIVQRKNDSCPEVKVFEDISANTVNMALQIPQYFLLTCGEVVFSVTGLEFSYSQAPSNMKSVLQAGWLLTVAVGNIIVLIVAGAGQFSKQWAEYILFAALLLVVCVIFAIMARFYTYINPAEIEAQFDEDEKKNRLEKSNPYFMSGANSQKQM

[3] = molecular target: T1, Solute carrier family 15 member 2; test: TP_TRANSPORTER: inhibition of Gly-Sar uptake in SKPT cells
[4] = molecular target: T2, Solute carrier family 15 member 1; test: TP_TRANSPORTER: inhibition of Gly-Sar uptake in Caco-2 cells
[5] = substrate: CN(CC(=O)O)C(=O)CN; test: TP_TRANSPORTER: uptake in PEPT1-expressing HeLa cells
[6] = substrate: CN(CC(=O)O)C(=O)CN; test: TP_TRANSPORTER: uptake in Caco-2 cells
[7] = substrate: CN(CC(=O)O)C(=O)CN; test: TP_TRANSPORTER: uptake in SKPT cells
[8] = substrate: CN(CC(=O)O)C(=O)CN; test: TP_TRANSPORTER: uptake in PEPT2-expressing HeLa cells

## CC(C)[C@H](N)C(=O)OCCOCn1cnc2c(=O)[nH]c(N)nc21 [VALACYCLOVIR]
[1]
  Ki: 390 µM
[2]
  Ki: 740 µM
[3]
  Ki: 170 µM
[4]
  Ki: 490 µM

B1: Solute carrier family 15 member 1 (Homo sapiens), P46059 (protein)
chain: T2 sequence (P46059 whole entry)
[5]
  Km: 450 µM
[6]
  Km: 510 µM

B2: Solute carrier family 15 member 2 (Rattus norvegicus), Q63424 (protein)
chain: T1 sequence (Q63424 whole entry)
[7]
  Km: 67 µM
[8]
  Km: 70 µM

Reference: ChEMBL document CHEMBL2074245, “Valacyclovir: a substrate for the intestinal and renal peptide transporters PEPT1 and PEPT2” (Biochem Biophys Res Commun, 1998)
